Earlier results on one compound are cited in PMC8843100, “Development of newly synthesised quinazolinone-based CDK2 inhibitors with potent efficacy against melanoma” (Journal of Enzyme Inhibition and Medicinal Chemistry, 2022).

The series concerns cyclin-dependent kinase2. On the set-up: method as in PMID 11354366. Particulars: CDK2; cited from earlier work.

As usually defined, the IC50 is the point on the concentration scale where inhibition reaches its midpoint. Turning to `CC(C)(C)Nc1nc(C(F)(F)F)nc2ccc(-c3cccc(N)c3)cc12` [DIN-234325], the IC50 is 600 ± 100 nM.
